According to patent US20250049800A1, “VCP/p97 INHIBITOR FOR THE TREATMENT OF CANCER” (CASI Pharmaceuticals, Inc., priority 2021, published 2025):
“And” between values parts separate entries of the source, which are not always exact repeats. Identical values can stand only once.

Experiment: Phase I study: plasma pharmacokinetics of orally administered Compound 1
Format: in vivo, human
Conditions: for AUC(0-inf) / AUC(0-t) / Cmax / half-life / Tmax: human, plasma, oral
Description: The study was designed as a multicenter, open-label Phase 1 study of orally administered Compound 1 in participants with R/R AML or participants with R/R intermediate- to high-risk MDS. […] Additional cohorts for participants with R/R intermediate- to high-risk MDS following hypomethylating agents or other AML cohorts may be added at a later time.
Similar dosing may be used in the dose expansion part of the study. […] Additional intensive PK testing is collected for any participants undergoing intra-patient dose escalation.
At the conclusion of the 900 mg QD cohort, subjects were enrolled in cohorts for BID dosing, starting with the 300 mg BID dosing.
Subjects were treated with Compound 1 QD as described in Example 2.
Subjects were treated with Compound 1 QD or BID dosing as described in Example 2 and blood samples were taken from subjects and analyzed as described in Example 3. Tables 16 and 17 show pharmacokinetic analyses for QD dosing for 100 mg, 175 mg, 275 mg, 350 mg, 400 mg and 900 mg cohorts and BID dosing for 300 mg and 350 mg cohorts. Abbreviations in Table 16 and Table 17: AR=Day 4 AUC0-24/Day 1 AUC0-24, NR=not reported; NA=not available. […] FIG. 9 and FIG. 10 show AUC for day 1 and day 4 of dosing with doses between 350-900 mg QD compared with 350 mg BID.

[1] = 300 mg, 300 mg BID, Day 1, 1 subject
[2] = 300 mg, 300 mg BID, Day 4, 1 subject
[3] = 350 mg, 350 mg BID, Day 1, Mean
[4] = 350 mg, 350 mg BID, Day 4, Mean

With Cc1cc2c(C(N)=O)cccc2n1-c1nc2c(c(NCc3ccccc3)n1)CCCN2 [Compound 1, 1-(4-(benzylamino)-5,6,7,8-tetrahydropyrido[2,3-d]pyrimidin-2-yl)-2-methyl-1H-indole-4-carboxamide] the “exposure level increases between the doses” value (25 mg to 450 mg QD) was “generally proportional and linear”, the Cmax/Dose (100 mg QD, Day 1, Mean) was 0.00372 µM/mg and the “exposure of BID dosing compared with QD dosing” value (350 mg BID vs 600, 750 and 900 mg QD, Day 1) was “higher level of exposure”. It also gave a Cmax/Dose (450 mg QD, Day 1, Mean) of 0.00481 µM/mg, an AUC0-inf/Dose (450 mg QD, Day 4, Mean) of 0.0853 µM·h/mg and an AR (Cohort 1 (25 mg QD), Day 4) of 0.914. The “plasma exposure compared with CB-5083” value (Compound 1 25 mg QD vs CB-5083 40 mg QD) was “significantly higher plasma exposure”, the accumulation (between days 1 and 4) was “No accumulation” and the “plasma exposure compared with CB-5083” value (human subjects) was “significantly higher plasma exposure than CB-5083”. For the same molecule, the AUC(0-inf) (100 mg, 100 mg QD, Day 1, Mean) was 1780 ng·h/mL and 4.31 µM·h, the AUC(0-t) (100 mg, 100 mg QD, Day 1, Mean) was 1420 ng·h/mL and 3.43 µM·h and the Cmax (100 mg, 100 mg QD, Day 1, Mean) was 154 ng/mL and 372 nM. The half-life (100 mg, 100 mg QD, Day 1, Mean) was 6.87 h, the AUC(0-inf) (100 mg, 100 mg QD, Day 4, Mean) was 3020 ng·h/mL and 7.32 µM·h and the AUC(0-t) (100 mg, 100 mg QD, Day 4, Mean) was 2750 ng·h/mL and 6.66 µM·h. The Cmax (100 mg, 100 mg QD, Day 4, Mean) was 356 ng/mL and 861 nM, the Tmax (100 mg, 100 mg QD, Day 4, Mean) was 2.67 h and the half-life (100 mg, 100 mg QD, Day 4, Mean) was 7.84 h. The AUC(0-inf) (175 mg, 175 mg QD, Day 1, Mean) was 5260 ng·h/mL and 12.7 µM·h, the AUC(0-t) (175 mg, 175 mg QD, Day 1, Mean) was 4380 ng·h/mL and 10.6 µM·h and the Cmax (175 mg, 175 mg QD, Day 1, Mean) was 636 ng/mL. For the same molecule, the Tmax (175 mg, 175 mg QD, Day 1, Mean) was 3.33 h, the half-life (175 mg, 175 mg QD, Day 1, Mean) was 11.4 h and the AUC(0-inf) (175 mg, 175 mg QD, Day 4, Mean) was 2950 ng·h/mL and 7.13 µM·h. For the same molecule, the AUC(0-t) (175 mg, 175 mg QD, Day 4, Mean) was 8760 ng·h/mL and 21.2 µM·h, the Cmax (175 mg, 175 mg QD, Day 4, Mean) was 490 ng/mL and 1.19 µM and the Tmax (175 mg, 175 mg QD, Day 4, Mean) was 13.5 h. The half-life (175 mg, 175 mg QD, Day 4, Mean) was 6.01 h, the AUC(0-inf) (275 mg, 275 mg QD, Day 1, Mean) was 4660 ng·h/mL and 11.3 µM·h and the AUC(0-t) (275 mg, 275 mg QD, Day 1, Mean) was 4140 ng·h/mL and 10 µM·h. For the same molecule, the Cmax (275 mg, 275 mg QD, Day 1, Mean) was 679 ng/mL and 1.65 µM, the Tmax (275 mg, 275 mg QD, Day 1, Mean) was 2.57 h and the half-life (275 mg, 275 mg QD, Day 1, Mean) was 5.08 h. The AUC(0-inf) (275 mg, 275 mg QD, Day 4, Mean) was 9660 ng·h/mL and 23.4 µM·h, the AUC(0-t) (275 mg, 275 mg QD, Day 4, Mean) was 9230 ng·h/mL and 22.4 µM·h and the Cmax (275 mg, 275 mg QD, Day 4, Mean) was 827 ng/mL and 2 µM. The Tmax (275 mg, 275 mg QD, Day 4, Mean) was 3.6 h, the half-life (275 mg, 275 mg QD, Day 4, Mean) was 8.9 h and the AUC(0-t) [1] was 12200 ng·h/mL and 29.6 µM·h. For the same molecule, the Cmax [1] was 965 ng/mL and 2.34 µM, the Tmax [1] was 12 h and the AUC(0-inf) [2] was 27700 ng·h/mL and 67 µM·h. For the same molecule, the AUC(0-t) [2] was 27400 ng·h/mL and 66.4 µM·h, the Cmax [2] was 1920 ng/mL and 4.65 µM and the Tmax [2] was 3 h. The AUC(0-inf) [3] was 29600 ng·h/mL and 71.8 µM·h, the AUC(0-t) [3] was 14600 ng·h/mL and 35.3 µM·h and the Cmax [3] was 1340 ng/mL and 3.25 µM. For the same molecule, the Tmax [3] was 7.63 h, the AUC(0-inf) [4] was 31800 ng·h/mL and 77 µM·h and the AUC(0-t) [4] was 23400 ng·h/mL and 56.7 µM·h. The Cmax [4] was 2020 ng/mL and 4.89 µM, the Tmax [4] was 3.25 h and the AUC(0-inf) (350 mg, 350 mg QD, Day 1, Mean) was 5330 ng·h/mL and 12.9 µM·h. The AUC(0-t) (350 mg, 350 mg QD, Day 1, Mean) was 5200 ng·h/mL and 12.6 µM·h and the Cmax (350 mg, 350 mg QD, Day 1, Mean) was 746 ng/mL and 1.81 µM.
